Laboratory results: patent US11739098B2 (BRISTOL-MYERS SQUIBB COMPANY, priority 2017, dated 2023)

Experiments:
Format in all cases: cell-based
human TLR9 = target: T1, human TLR9 (Homo sapiens, UniProt Q9NR96); assay: TLR9 inhibition reporter assay (HEK-Blue cells, SEAP reporter, ODN2006 stimulation); details: HEK-Blue cells overexpressing human TLR9, SEAP reporter, ODN2006 5 nM
T1 construct: host or cells: HEK-Blue cells (HEK293-derived reporter line)
T1 sequence (Q9NR96 26-1032): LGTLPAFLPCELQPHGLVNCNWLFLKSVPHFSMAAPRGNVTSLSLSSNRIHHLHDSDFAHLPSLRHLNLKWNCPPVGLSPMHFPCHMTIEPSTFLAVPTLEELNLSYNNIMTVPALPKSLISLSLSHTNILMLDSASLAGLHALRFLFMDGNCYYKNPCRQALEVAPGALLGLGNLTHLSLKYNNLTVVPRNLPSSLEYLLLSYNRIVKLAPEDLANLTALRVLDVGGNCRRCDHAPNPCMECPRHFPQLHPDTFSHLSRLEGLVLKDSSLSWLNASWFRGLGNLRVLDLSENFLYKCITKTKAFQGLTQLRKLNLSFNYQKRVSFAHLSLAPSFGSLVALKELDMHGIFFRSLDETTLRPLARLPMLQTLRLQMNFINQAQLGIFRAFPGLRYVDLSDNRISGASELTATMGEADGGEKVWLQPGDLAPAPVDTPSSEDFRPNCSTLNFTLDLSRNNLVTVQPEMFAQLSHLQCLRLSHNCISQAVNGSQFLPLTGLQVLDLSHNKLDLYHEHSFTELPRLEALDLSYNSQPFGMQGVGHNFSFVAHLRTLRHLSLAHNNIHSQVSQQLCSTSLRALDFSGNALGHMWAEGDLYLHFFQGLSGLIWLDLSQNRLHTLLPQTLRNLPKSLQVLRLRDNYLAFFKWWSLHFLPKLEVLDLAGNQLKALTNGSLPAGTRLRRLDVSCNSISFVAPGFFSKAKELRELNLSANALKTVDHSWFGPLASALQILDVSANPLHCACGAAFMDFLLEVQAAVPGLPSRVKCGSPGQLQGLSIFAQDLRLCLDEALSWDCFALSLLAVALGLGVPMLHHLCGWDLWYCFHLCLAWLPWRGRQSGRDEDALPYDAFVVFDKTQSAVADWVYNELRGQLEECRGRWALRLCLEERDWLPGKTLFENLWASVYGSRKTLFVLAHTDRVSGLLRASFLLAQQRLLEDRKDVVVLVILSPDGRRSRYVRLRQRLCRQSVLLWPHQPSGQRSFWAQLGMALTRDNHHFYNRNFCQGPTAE
Outline: (§1)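 Cells seeded per well (15000 TLR7, 20,000 TLR8, 25,000 TLR9); compound added over 0.05 nM–50 μM for 30 min at room temperature; agonist added (TLR7 gardiquimod 7.5 μM, TLR8 R848 15.9 μM, TLR9 ODN2006 5 nM); 22 h at 37 °C; SEAP measured; percent inhibition calculated.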

human TLR8 = target: T2, human TLR8 (Homo sapiens, UniProt Q9NR97); assay: TLR8 inhibition reporter assay (HEK-Blue cells, SEAP reporter, R848 stimulation); details: HEK-Blue cells overexpressing human TLR8, SEAP reporter, R848 15.9 μM
T2 construct: host or cells: HEK-Blue cells (HEK293-derived reporter line)
T2 sequence (Q9NR97 27-1041): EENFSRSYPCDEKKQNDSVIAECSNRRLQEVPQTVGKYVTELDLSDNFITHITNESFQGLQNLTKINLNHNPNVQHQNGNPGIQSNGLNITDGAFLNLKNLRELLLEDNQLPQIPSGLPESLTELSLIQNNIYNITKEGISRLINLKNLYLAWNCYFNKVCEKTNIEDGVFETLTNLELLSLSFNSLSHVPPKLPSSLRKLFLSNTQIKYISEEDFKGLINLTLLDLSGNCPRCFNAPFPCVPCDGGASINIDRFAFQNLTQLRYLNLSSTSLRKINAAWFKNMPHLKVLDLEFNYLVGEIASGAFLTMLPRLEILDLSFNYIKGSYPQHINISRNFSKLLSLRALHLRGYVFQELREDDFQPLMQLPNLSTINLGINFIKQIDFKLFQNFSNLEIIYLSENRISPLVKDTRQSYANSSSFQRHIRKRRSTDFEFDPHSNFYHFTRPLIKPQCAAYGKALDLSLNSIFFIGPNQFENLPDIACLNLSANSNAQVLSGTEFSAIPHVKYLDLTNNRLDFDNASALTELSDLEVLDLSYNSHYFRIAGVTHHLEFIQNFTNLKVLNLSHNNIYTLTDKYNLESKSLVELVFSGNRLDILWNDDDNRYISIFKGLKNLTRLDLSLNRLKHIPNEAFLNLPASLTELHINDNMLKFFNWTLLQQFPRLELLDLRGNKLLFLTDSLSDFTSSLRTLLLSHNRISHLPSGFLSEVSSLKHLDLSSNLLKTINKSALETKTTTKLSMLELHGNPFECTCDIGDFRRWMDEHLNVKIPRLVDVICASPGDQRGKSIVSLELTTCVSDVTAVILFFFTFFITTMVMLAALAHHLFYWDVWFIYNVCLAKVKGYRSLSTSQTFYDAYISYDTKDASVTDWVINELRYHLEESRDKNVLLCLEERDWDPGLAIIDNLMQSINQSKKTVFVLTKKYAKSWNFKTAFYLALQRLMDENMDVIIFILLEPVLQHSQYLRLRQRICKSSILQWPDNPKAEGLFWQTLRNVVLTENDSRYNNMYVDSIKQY
Outline: as §1

human TLR7 = target: T3, human TLR7 (Homo sapiens, UniProt Q9NYK1); assay: TLR7 inhibition reporter assay (HEK-Blue cells, SEAP reporter, gardiquimod stimulation); details: HEK-Blue cells overexpressing human TLR7, SEAP reporter, gardiquimod 7.5 μM
T3 construct: host or cells: HEK-Blue cells (HEK293-derived reporter line)
T3 sequence (Q9NYK1 27-1049): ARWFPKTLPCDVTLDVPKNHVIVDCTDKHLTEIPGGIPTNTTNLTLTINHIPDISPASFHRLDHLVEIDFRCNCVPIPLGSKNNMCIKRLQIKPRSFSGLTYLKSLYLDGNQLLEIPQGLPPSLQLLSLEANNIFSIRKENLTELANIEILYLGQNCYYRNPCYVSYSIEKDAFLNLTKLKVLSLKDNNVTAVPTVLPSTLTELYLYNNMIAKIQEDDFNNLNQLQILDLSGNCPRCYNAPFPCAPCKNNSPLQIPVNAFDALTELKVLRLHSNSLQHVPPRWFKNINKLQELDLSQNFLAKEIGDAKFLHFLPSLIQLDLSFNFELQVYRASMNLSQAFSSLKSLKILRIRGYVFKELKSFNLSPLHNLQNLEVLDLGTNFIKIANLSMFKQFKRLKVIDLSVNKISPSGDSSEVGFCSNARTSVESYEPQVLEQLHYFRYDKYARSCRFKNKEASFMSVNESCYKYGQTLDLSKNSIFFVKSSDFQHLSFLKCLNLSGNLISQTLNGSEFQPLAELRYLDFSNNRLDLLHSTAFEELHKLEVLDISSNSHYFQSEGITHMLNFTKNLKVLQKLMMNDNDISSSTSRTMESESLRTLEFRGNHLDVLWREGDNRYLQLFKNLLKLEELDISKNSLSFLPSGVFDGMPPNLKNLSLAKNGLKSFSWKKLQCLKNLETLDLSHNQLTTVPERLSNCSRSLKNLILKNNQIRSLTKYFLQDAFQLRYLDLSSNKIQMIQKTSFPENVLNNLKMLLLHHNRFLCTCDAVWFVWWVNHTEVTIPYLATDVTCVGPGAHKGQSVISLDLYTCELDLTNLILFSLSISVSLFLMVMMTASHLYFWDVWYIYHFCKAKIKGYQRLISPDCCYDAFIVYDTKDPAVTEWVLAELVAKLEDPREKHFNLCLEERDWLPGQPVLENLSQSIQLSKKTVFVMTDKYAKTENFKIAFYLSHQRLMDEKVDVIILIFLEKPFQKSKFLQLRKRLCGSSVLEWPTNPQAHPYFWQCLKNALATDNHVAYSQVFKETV
Outline: as §1

| Compound | IC50 (human TLR9) [µM] | IC50 (human TLR8) [µM] | IC50 (human TLR7) [µM] |
| --- | --- | --- | --- |
| Cc1cc(-c2[nH]c3ccc(C4CCN(CC(=O)N(C)C)CC4)cc3c2C(C)C)cc2cn(C)nc12 [Example 379, 2-(4-(2-(2,7-dimethyl-2H-indazol-5-yl)-3-isopropyl-1H-indol-5-yl)piperidin-1-yl)-N,N-dimethylacetamide] | 1 to 50 | < 0.1 | < 0.1 |
| CC(C)c1c(-c2ccnc3[nH]ncc23)[nH]c2ccc(C3CCN(Cc4cc(F)cnc4Cl)CC3)cc12 [Example 913, 4-(5-(1-((2-chloro-5-fluoropyridin-3-yl)methyl)piperidin-4-yl)-3-isopropyl-1H-indol-2-yl)-1H-pyrazolo[3,4-b]pyridine] | > 50 | 0.1 to 1 | 0.1 to 1 |
| CC(C)c1c(-c2ccn3cnnc3c2)[nH]c2ccc(C3CCN(Cc4ncn(C)n4)CC3)cc12 [Example 880, 7-(3-isopropyl-5-(1-((1-methyl-1H-1,2,4-triazol-3-yl)methyl)piperidin-4-yl)-1H-indol-2-yl)-[1,2,4]triazolo[4,3-a]pyridine] | 1 to 50 | 0.1 to 1 | 0.1 to 1 |
| CC(C)c1c(-c2ccnc3[nH]ncc23)[nH]c2cc(Cl)c(C3CCNCC3)cc12 [Example 252, 4-(6-chloro-3-isopropyl-5-(piperidin-4-yl)-1H-indol-2-yl)-1H-pyrazolo[3,4-b]pyridine] | 0.1 to 1 | < 0.1 | < 0.1 |
| Cc1nc2c(-c3[nH]c4ccc(C5CCN(C(=O)C[C@H](C)O)CC5)cc4c3C(C)C)ccc(C)n2n1 [Example 598, (S)-1-(4-(2-(2,5-dimethyl-[1,2,4]triazolo[1,5-a]pyridin-8-yl)-3-isopropyl-1H-indol-5-yl)piperidin-1-yl)-3-hydroxybutan-1-one] | > 50 | 1 to 50 | > 3.13 |
| CCc1c(-c2ccc3nncn3n2)[nH]c2ccc(C3CCNCC3)cc12 [Example 184, 6-(3-ethyl-5-(piperidin-4-yl)-1H-indol-2-yl)-[1,2,4] triazolo[4,3-b]pyridazine] | 0.1 to 1 | 0.1 to 1 | 0.1 to 1 |
| Cc1cn2cc(-c3[nH]c4ccc(C5CCN(C(=O)CN(C)C)CC5)cc4c3C(C)C)ccc2n1 [Example 523, 2-(dimethylamino)-1-(4-(3-isopropyl-2-(2-methylimidazo [1,2-a]pyridin-6-yl)-1H-indol-5-yl)piperidin-1-yl)ethan-1-one] | 0.1 to 1 | 0.1 to 1 | < 0.1 |
| Cc1cccc2cc(CN3CCC(c4ccc5[nH]c(-c6ccnc7[nH]ncc67)c(C(C)C)c5c4)CC3)c(Cl)nc12 [Example 922, 2-chloro-3-((4-(3-isopropyl-2-(1H-pyrazolo[3,4-b]pyridin-4-yl)-1H-indol-5-yl)piperidin-1-yl)methyl)-8-methylquinoline] | 1 to 50 | 1 to 50 | 1 to 50 |
| CC(C)c1c(-c2ccc(Cl)c3[nH]ncc23)[nH]c2ccc(C3CCN(C(=O)CN(C)C)CC3)cc12 [Example 556, 1-(4-(2-(7-chloro-1H-indazol-4-yl)-3-isopropyl-1H-indol-5-yl)piperidin-1-yl)-2-(dimethylamino)ethan-1-one] | 1 to 50 | 0.1 to 1 | 0.1 to 1 |
| CC(C)c1c(-c2cnc3ccnn3c2)[nH]c2ccc(C3CCN(C(=O)[C@@H]4NCC[C@H]4O)CC3)cc12 [Example 513, ((2R,3R)-3-hydroxypyrrolidin-2-yl)(4-(3-isopropyl-2-(pyrazolo[1,5-a]pyrimidin-6-yl)-1H-indol-5-yl)piperidin-1-yl)methanone] | 1 to 50 | > 3.13 | 1 to 50 |
| Cc1cn2cc(-c3[nH]c4ccc(C5CCNCC5)cc4c3C(C)C)cc(F)c2n1 [Example 126, 8-fluoro-6-(3-isopropyl-5-(piperidin-4-yl)-1H-indol-2-yl)-2-methylimidazo[1,2-a]pyridine] | 0.1 to 1 | 0.1 to 1 | < 0.1 |
| Cc1cc(-c2[nH]c3ccc(C4CCN(CC#N)CC4)cc3c2C(C)C)cn2ccnc12 [Example 951, 2-(4-(3-isopropyl-2-(8-methylimidazo[1,2-a]pyridin-6-yl)-1H-indol-5-yl)piperidin-1-yl)acetonitrile] | 0.1 to 1 | < 0.1 | < 0.1 |
| Cc1cc(-c2[nH]c3ccc(C4CCN(C5CCOCC5)CC4)cc3c2C(C)C)cn2ccnc12 [Example 705, 6-(3-isopropyl-5-(1-(tetrahydro-2H-pyran-4-yl)piperidin-4-yl)-1H-indol-2-yl)-8-methylimidazo[1,2-a]pyridine] | 0.1 to 1 | < 0.1 | < 0.1 |
| CC(C)c1c(-c2cnc3ncnn3c2)[nH]c2ccc(C3CCN(C4COC4)CC3)cc12 [Example 721, 6-(3-isopropyl-5-(1-(oxetan-3-yl)piperidin-4-yl)-1H-indol-2-yl)-[1,2,4]triazolo[1,5-a]pyrimidine] | 1 to 50 | 0.1 to 1 | < 0.1 |
